According to patent US11578055B2, “Triazacyclododecansulfonamide (“TCD”)-based protein secretion inhibitors” (KEZAR LIFE SCIENCES, priority 2018, dated 2023):
Where a name gives a salt, the structure may show the parent alone. Read-outs that look alike come from different tables or passages of the source.

Key:
[1] = In Vitro Microsome Stability Assay (human); format: in vitro ADME
Outline: (§1)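 Test article, added from a 0.25 mM DMSO stock, was incubated with liver microsomes (20 mg/mL stock) in 0.1 M potassium phosphate at 37° C, with the reaction started by NADPH. Samples were quenched with acetonitrile containing internal standard at 0 and 30 min and analysed by LC-MS/MS. Values are % remaining at 30 min versus 0 min, using IS-normalised AUC ratios.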

[2] = system: PD1 signal sequence plus 10 amino acids fused to Gaussia Luciferase (PD1-ss+10aa/Gaussia Luciferase); assay: Dox Induced PD1-ss-Gluc Assay; format: cell-based; details: 24 hr, read-out: 24 hr Dox Inducible PD1ssGluc 293FRT/TO: Mean IC50
Outline: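 Compound dilutions in DMSO/media containing doxycycline were applied to a stable, inducible 293 T-REx line carrying the luciferase fusion, then incubated at 37 °C, 5% CO2. Where stereochemistry is not drawn, values relate to isomer mixtures.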

[3] = In Vitro Microsome Stability Assay (rat); format: in vitro ADME
Outline: as §1

[4] = system: multiple myeloma cell line NCl-H929; assay: H929 Cell Viability Assay; format: cell-based, human
Outline: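 Viability was determined by CellTiter-Glo luminescence after a 48 h, 37 °C exposure of NCI-H929 cells to serial compound dilutions in medium containing 10% FBS. Where stereochemistry is not shown, values refer to a mix of stereoisomers.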

[5] = In Vitro Microsome Stability Assay (mouse); format: in vitro ADME
Outline: as §1

[6] = system: multiple myeloma cell line U266B1; assay: U266 Cell Viability Assay; format: cell-based, human; details: Homo sapiens, U-266, 48 hr
Outline: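 Viability was measured by CellTiter-Glo luminescence after 48 h compound exposure at 37° C, 5% CO2. The cells were U266B1 multiple myeloma cells grown in RPMI 1640 plus 10% FBS. Where stereochemistry is not shown, values apply to the stereoisomer mixture.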

[7] = In Vitro Microsome Stability Assay (monkey); format: in vitro ADME
Outline: as §1

[8] = system: full length TNFα (amino acids 1-233) fused to Gaussia Luciferase; assay: Dox Induced TNFα-FL-Gluc Assay; format: cell-based; details: 24 hr, read-out: 24 hr Dox Inducible TNFaFLGluc 293FRT/TO: Mean IC50
Outline: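 Compounds diluted in DMSO/medium with doxycycline were incubated at 37° C, 5% CO2 with 293 T-REx cells stably carrying a Tet-regulated TNFα(1-233)-Gaussia luciferase construct. Data for structures drawn without stereochemistry refer to stereoisomer mixtures.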

[9] = Homo sapiens, NCI-H929, 48 h, H929, read-out: 48 hr H929 Viability Celltiter-Glo: Mean EC50
[10] = U266, read-out: 48 hr U266 Viability Celltiter-Glo: Mean EC50

Row | SMILES | Liver Microsome Stability-% Left after 30 min w/ NADPH (%) Human ([1]; human, 30 min, NADPH) | IC50 ([2]; 293FRT/TO) | Liver Microsome Stability-% Left after 30 min w/ NADPH (%) Rat ([3]; rat, 30 min, NADPH) | EC50 [4, 9] | Liver Microsome Stability-% Left after 30 min w/ NADPH (%) Mouse ([5]; mouse, 30 min, NADPH) | EC50 [6, 10] | Liver Microsome Stability-% Left after 30 min w/ NADPH (%) Monkey ([7]; monkey, 30 min, NADPH) | IC50 ([8]; 293FRT/TO) | Liver Microsome Stability-% Left after 30 min w/ NADPH (%) Human ([1]; human liver microsomes, 30 min w/ NADPH) | IC50 ([2]; Dox inducible, 293FRT/TO cells) | Liver Microsome Stability-% Left after 30 min w/ NADPH (%) Rat ([3]; rat liver microsomes, 30 min w/ NADPH) | EC50 ([4]; Homo sapiens, NCI-H929, 48 h, H929, Celltiter-Glo) | Liver Microsome Stability-% Left after 30 min w/ NADPH (%) Mouse ([5]; mouse liver microsomes, 30 min w/ NADPH) | EC50 ([6]; U266, Celltiter-Glo) | Liver Microsome Stability-% Left after 30 min w/ NADPH (%) Monkey ([7]; monkey liver microsomes, 30 min w/ NADPH) | IC50 ([8]; Dox inducible, 293FRT/TO cells) | EC50 ([4]; 48 hr, H929, read-out: 48 hr H929 Viability Celltiter-Glo: Mean EC50)
1 | CN(C)c1ccc(S(=O)(=O)N2CCCN(CC3CCCCC3)CCCN(S(=O)(=O)N3CCC(c4ccccc4)CC3)CCC2)cc1 [A42, 4-{[5-(cyclohexylmethyl)-9-[(4-phenylpiperidin-1-yl)sulfonyl]-1,5,9-triazacyclododecan-1-yl]sulfonyl}-N,N-dimethylaniline] | 2.65% | 0.696 µM | 7.69% | > 25 µM | 0.79% | > 25 µM | 0.81% | > 25 µM | – | – | – | – | – | – | – | – | –
2 | CN(C)c1ccc(S(=O)(=O)N2CCCN(CC3CCCCC3)CCCN(S(=O)(=O)N3CCCCC3)C2)cc1 [B4, 4-{[7-(cyclohexylmethyl)-3-(piperidine-1-sulfonyl)-1,3,7-triazecan-1-yl]sulfonyl}-N,N-dimethylaniline] | – | – | – | – | – | – | – | – | 12.1% | > 25 µM | 2.79% | > 25 µM | 2.21% | 16.6 µM | 1.7% | > 25 µM | –
3 | C=C1CN(S(=O)(=O)c2ccc(N(C)C)cc2)CCCN(CC2CCCCC2)CCCN(S(=O)(=O)N2CCc3cc(Cl)ccc3C2)C1 [A53, 4-({5-[(6-chloro-1,2,3,4-tetrahydroisoquinolin-2-yl)sulfonyl]-9-(cyclohexylmethyl)-3-methylidene-1,5,9-triazacyclododecan-1-yl}sulfonyl)-N,N-dimethylaniline] | 38% | 0.0353 µM | 50.5% | 1.72 µM | 39.2% | > 10.3 µM | 39% | 1.01 µM | – | – | – | – | – | – | – | – | –
4 | C=C1CN(S(=O)(=O)c2ccc(C)cc2)CCCN(CC2CCCCC2)CCCN(S(=O)(=O)C2CCCCC2)C1 [A5] | 0.24% | 0.651 µM | 0.24% | – | 0.27% | > 25 µM | 0.31% | > 25 µM | – | – | – | – | – | – | – | – | 8.43 µM
5 | C=C1CN(S(=O)(=O)c2ccc(N(C)C)cc2)CCCN(CC2CCCCC2)CCCN(S(=O)(=O)N2CCc3nc(Cl)ccc3C2)C1 [A82, 4-({5-[(2-chloro-5,6,7,8-tetrahydro-1,6-naphthyridin-6-yl)sulfonyl]-9-(cyclohexylmethyl)-3-methylidene-1,5,9-triazacyclododecan-1-yl}sulfonyl)-N,N-dimethylaniline] | 0.3% | 0.0305 µM | 0.16% | 2.3 µM | 0.08% | > 25 µM | 0.23% | 1.55 µM | – | – | – | – | – | – | – | – | –
6 | C=C1CN(S(=O)(=O)CC)CCCN(CC2CCCCC2)CCCN(S(=O)(=O)c2ccc(C)cc2)C1 [A6, 9-(cyclohexylmethyl)-1-(ethanesulfonyl)-5-(4-methylbenzenesulfonyl)-3-methylidene-1,5,9-triazacyclododecane] | 0.53% | 4.75 µM | 0.17% | 24.1 µM | 0.12% | > 25 µM | 0.44% | > 25 µM | – | – | – | – | – | – | – | – | –
7 | C=C1CN(S(=O)(=O)c2ccc(N(C)C)cc2)CCCN(CC2CCCCC2)CCCN(S(=O)(=O)N2CCC(c3ncccn3)CC2)C1 [A81, 4-{[9-(cyclohexylmethyl)-3-methylidene-5-{[4-(pyrimidin-2-yl)piperidin-1-yl]sulfonyl}-1,5,9-triazacyclododecan-1-yl]sulfonyl}-N,N-dimethylaniline] | 0.2% | 0.477 µM | 0.12% | > 25 µM | 0.12% | > 25 µM | 0.03% | > 25 µM | – | – | – | – | – | – | – | – | –
8 | C=C1CN(S(=O)(=O)c2ccc(N(C)C)cc2)CCCN(CC2CCCCC2)CCCN(S(=O)(=O)N2CCc3cc(-c4ccccc4)ccc3C2)C1 [A63, 4-((9-(cyclohexylmethyl)-3-methylene-5-((6-phenyl-3,4-dihydroisoquinolin-2(1H)-yl)sulfonyl)-1,5,9-triazacyclododecan-1-yl)sulfonyl)-N,N-dimethylaniline] | 76.4% | 0.0437 µM | 88.2% | 7.43 µM | 85.2% | > 25 µM | 84.4% | 1.87 µM | – | – | – | – | – | – | – | – | –
9 | CC1CN(S(=O)(=O)c2ccc(N(C)C)cc2)CCCN(CC2CCCCC2)CCCN(S(=O)(=O)N2CCC(c3ccccc3)CC2)C1 (centres unmarked) [A44, 4-{[9-(cyclohexylmethyl)-3-methyl-5-[(4-phenylpiperidin-1-yl)sulfonyl]-1,5,9-triazacyclododecan-1-yl]sulfonyl}-N,N-dimethylaniline hydrochloride] | 47.6% | 0.132 µM | 54% | > 25 µM | 43.8% | > 25 µM | 38% | 12.7 µM | – | – | – | – | – | – | – | – | –
10 | C=C1CN(S(=O)(=O)c2ccc(N(C)C)cc2)CCCN(CC2CCCCC2)CCCN(S(=O)(=O)N2CCC(c3ccc(Cl)cc3)CC2)C1 [A72, 4-[(5-{[4-(4-chlorophenyl)piperidin-1-yl]sulfonyl}-9-(cyclohexylmethyl)-3-methylidene-1,5,9-triazacyclododecan-1-yl)sulfonyl]-N,N-dimethylaniline] | 62.5% | 0.0962 µM | 54.6% | 10.3 µM | 43.3% | > 25 µM | 53.2% | 6.97 µM | – | – | – | – | – | – | – | – | –
